According to patent US11583570B2, “Use of autoinducer-related pathway in inducing apoptosis and anti-infective therapy” (TSINGHUA UNIVERSITY, priority 2017, dated 2023):

How the values were obtained:
ZAP70 = ZAP70 phosphorylation in live cells recovered from T cell culture; format: cell-based; details: live cells recovered from the culture
thymoma line EL4 = assay: Annexin V/PI apoptosis detection, EL4; format: cell-based
Description: (§1) Cell apoptosis was detected with Annexin V/PI apoptosis detection Kit. Briefly, cells were stimulated with HSLs or left untreated. 6 hrs later, cells were collected and stained with Annexin VFITC and PI for 15 min at RT, then the apoptotic effect was measured by flow cytometry. OT-I or OT-II splenocytes were pulsed with specific peptides or PMA and ionomycin mixture with or without HSLs or TNF α plus cycloheximide. 24 hrs later, cells and supernatants were collected separately. For OT-I activation, cells were stained with CD69 and CD8. For OT-II activation, cells were stained with CD69 and CD4. Cell activation was measured by flow cytometry. All supernatants were detected for IL-2 secretion by ELISA.

reticuloma A20 = assay: Annexin V/PI apoptosis detection, A20; format: cell-based
Description: as §1

Lipid binding assay = format: physicochemical; details: DOPC, DPPC, PE, cholesterol, sphingomyelin individually or in combination
Description: 1 mg/ml of each lipid species in chloroform was coated on round glass slides by evaporation.
Then the glass slices were incubated with 100 μM 3OC12 HSL in DMSO in PBS at 37° C. After the incubation, the glass slices were washed slightly with PBS for 4-5 times and lipids were dissolved with DMSO. The amount of 3OC12 HSL in each sample was measured by QS bioassay as described above.

TNFR1 [1] = assay: DTSSP cross-linking assay, TNFR1; format: cell-based; details: crosslinker DTSSP, non-reducing condition
Description: (§2) For FADD immunoprecipitation, 4 μg anti-mouse FADD pAb (Santa Cruz, H-181) were incubated with 100 μl protein A/G agarose for 2 hrs at RT. 3 million/ml purified CD4 T cells were stimulated with HSLs or left untreated. The cells were then collected and lysed with IP lysis buffer (50 mM HEPES pH 7.4, 150 mM NaCl, 1% NP-40, 1 mM EDTA, 1 mM PMSF, 1 mM NaF, 1 mM NaVO3 and protease inhibitor cocktails). The cell lysates were added into antibody-bead mixtures for 3 hrs at 4° C. Beads were then collected by low speed centrifugation (1000 g, 5 min) and washed 4 times with IP lysis buffer (300 mM NaCl added). After the last wash, pellets were suspended with 70 ul 2×SDS loading buffer and boiled for 5 min. For caspase 8 immunoprecipitation, 4 μg anti-Caspase 8 pAb (Santa Cruz, C-20) was incubated with 100 μl protein A/G agarose for 1 hr at RT. 3 million/ml H9 cells were treated with HSLs or left untreated. The samples were processed as in FADD IP. For cross-linking assay, CD4+ T cells isolated from C57BL/6 mice spleen or human THP-1 cells was stimulated with HSLs or left untreated, then cells were collected and cross-linked by 10 mM DTSSP at RT for 30 min and quenched with 1M Tris-HCl (pH7.5) for 15 min. […]

Fas = assay: DTSSP cross-linking assay, Fas; format: cell-based; details: crosslinker DTSSP, prolonged incubation
Description: as §2

TNFR1 [2] = assay: Lipid raft isolation, TNFR1 in detergent resistant domains; format: cell-based; details: human and mouse T cells
RAW264.7 cells = assay: Phagocytosis assay; format: cell-based
Description: For Phagocytic assay, polystyrene beads were coated with BSA plus mouse anti-BSA Ab via commercial methods. Before experiment, RAW264.7 cells were cultured on clean glass slices in 24-hole plate with Opti-MEM. Cells were co-cultured with coated beads, centrifuged at 900 g, 4° C. for 5 min and cultured at 37° C. for 45 min. Then cells were fixed with 4% paraformaldehyde and stained with 488 nm anti-mouse fluorescent Ab for immunofluorescent imaging. For analysis, total number of beads on each cell was calculated under bright field, the number of beads which were not engulfed were calculated under fluorescent lighting.

EGFR [3] = assay: MSFQ, EGFR dimerization; format: cell-based, human; details: in comparison with the carrier treatment
Description: Single molecule photo-bleaching step counting: 0.5 μg TNFR1(1-293)-peGFP-N1 plasmid or 0.5 μg EGFR-peGFP-N1 plasmid was transfected into HeLa cells and cultured for 5-6 hrs. Then the cells were stimulated with HSLs, TNF α, or left untreated, and washed twice with PBS and fixed with 4% paraformaldehyde before imaging. GFP was excited at 488 nm with a laser power of 5 mW measured after the laser passing through the objective. The collected fluorescent signal was gated by a band-pass filter HQ 525/50 (Chroma Technology). The EM gain of the EMCCD camera was set at 300. Movies of 400 frames were acquired for each sample at a full-frame rate of 10 Hz. For imaging analysis, the background fluorescence was firstly subtracted from the movie acquired from the fixed cells using the rolling ball method in Image J software, and regions of interest on movies were selected manually according to the outline of cells. To analyze the bleaching steps, the fluorescence time courses of each fluorescent spots were first constructed by Image J plugin and bleaching steps were then counted manually.

EGFR [4] = assay: EGFR phosphorylation; format: cell-based; details: in the absence of the ligand

CCCCCCCCCC(=O)CC(=O)N[C@H]1CCOC1=O [3OC12 HSL, N-(3-oxo-dodecanoyl) homoserine lactone]
ZAP70 phosphorylation (ZAP70): minimally affected | sensitivity to 3OC12 HSL (thymoma line EL4): sensitive | sensitivity to 3OC12 HSL (reticuloma A20): sensitive | retention by coated lipid components (Lipid binding assay): only lipid components containing cholesterol, sphingomyelin and DOPC were able to efficiently retain | amount of band with approximate 3 times the molecular weight of TNFR1 monomer (TNFR1 [1]): rapidly increased | Fas oligomerization (Fas): did not show a significant change | TNFR1 associated with lipid rafts (TNFR1 [2]): reduced | attachment of beads to cells (RAW264.7 cells): not affected | phagocytosis of antibody-coated latex beads (RAW264.7 cells; without 3OC12 HSL 4.6): 2.6+/−0.2% | EGFR dimerization (EGFR [3]): increased the dimerization | EGFR phosphorylation (EGFR [4]): became detectable
